Results taken from EPA's ToxValDB 9.5.
Where “and” joins values, the source holds several entries; their conditions need not be identical. Equal values may be shown once.

Columns and labels:
Rattus norvegicus [1] = conditions: oral; for NOEL: diet
Rattus norvegicus [2] = conditions: chronic, M/F
Canidae [3] = conditions: repeat dose other; oral; Dog Other
Rattus norvegicus [4] = conditions: repeat dose other; oral
Rattus norvegicus [5] = test system: Rattus norvegicus
Rattus norvegicus [6] = experiment: LC0; higher = less toxic; conditions: acute; inhalation
Mus musculus [7] = conditions: chronic; duration: 2 years; inhalation; intermittent; Nasal mucosa: Hyperplasia + Nasal mucosa: Hypertrophy
Mus musculus [8] = experiment: LD0; higher = less toxic; conditions: acute; oral
Oryctolagus sp. [9] = conditions: for LD50: acute, dermal; for NOAEL: reproduction developmental, duration: 13 days, oral
Canidae [10] = conditions: chronic; duration: 9 years; oral; capsule; F; Beagle; hepatic
Canidae [11] = conditions: chronic, oral, Beagle
Rattus norvegicus [12] = experiment: LD0; higher = less toxic; conditions: acute, oral, gavage
Mus musculus [13] = conditions: acute; oral; gavage; CD1
Mus musculus [14] = conditions: developmental, oral, gavage, developmental
Rattus norvegicus [15] = conditions: chronic, oral, diet; for NOAEL: M, Wistar, immunological
Oryctolagus sp. [16] = test system: Oryctolagus sp.
Oryctolagus sp. [17] = test system: Oryctolagus sp.; remark: listed apart in the source
Monkey = conditions: developmental; oral; M/F; reduced birth weight
Neovison sp. = conditions: repeat dose other; oral; Mink
Gallus sp. = conditions: acute; oral; gavage; White Leghorn
Canidae [18] = conditions: chronic; duration: 4 months; oral; Beagle
Coturnix japonica = conditions: repeat dose other; oral
Mus musculus [19] = conditions: repeat dose other; oral
Mus musculus [20] = conditions: uterotrophic, injection, Active
Rattus norvegicus [21] = conditions: uterotrophic, Active
Pelecanus occidentalis = conditions: oral
[22] = inhalation, liver toxicity (fatty change)
[23] = oral, drinking water, liver toxicity (fatty change)
[24] = subchronic, inhalation, M/F, functional and histological peripheral neurotoxicity
[25] = duration: 27 weeks, oral, diet, liver lesions
[26] = developmental, oral, F, maternal (reduced weight gain) and fetal toxicity

With `C=C(Cl)Cl` [1,1-Dichloroethylene] the LOAEL (Rattus norvegicus [1]; chronic, duration: 2 years, drinking water, Liver: Lesions) was 9 mg/kg-day, the LOAEL (Rattus norvegicus [2]; [22]) was 297 mg/m3 and the NOAEL (Rattus norvegicus [2]; [22]) was 99.1 mg/m3. The LOAEL (Rattus norvegicus [2]; [23]) was 14 mg/kg-day, the NOAEL (Rattus norvegicus [2]; [23]) was 9 mg/kg-day and the NOAEL (Canidae [3]) was 2.5 mg/kg-day. For the same compound, the NOAEL (Rattus norvegicus [4]) was 30 mg/kg-day.
With `FC(F)(F)C(F)(Cl)Cl` [1,1-Dichlorotetrafluoroethane] the NOAEL (Rattus norvegicus [5]; short-term, duration: 2 weeks, inhalation, M, Crl:CDABR) was 289000 mg/m3 and the LC0 (Rattus norvegicus [6]) was > 1.07e+06 mg/m3.
With `ClC=CCCl` [1,3-Dichloropropene] the NOAEL (Mus musculus [7]) was 22.7 mg/m3 and the NOEL (Rattus norvegicus [1]; subchronic, duration: 90 days, Organs: Increased weight) was 3 mg/kg-day.
With `Nc1ccc(Cc2ccc(N)c(Cl)c2)cc1Cl` [4,4'-Methylenebis(2-chloroaniline)] the LD0 (Mus musculus [8]) was 640 mg/kg, the LD50 (Oryctolagus sp. [9]) was > 5000 mg/kg and the LOAEL (Canidae [10]) was 10 mg/kg-day. It also gave an LOAEL (Canidae [11]; duration: 9 years, capsule, F, hepatic) of 7.3 mg/kg-day.
In the case of `S=C(SN1CCOCC1)N1CCOCC1` [4-((Morpholinothio)thioxomethyl)morpholine], the LD0 (Rattus norvegicus [12]) is reported as 1000 mg/kg, the LD0 (Rattus norvegicus [12]; Sprague-Dawley) is reported as 2700 mg/kg and the LD50 (Mus musculus [13]) is reported as 7000 mg/kg and 9000 mg/kg and 11000 mg/kg. For the same compound, the LD50 (Rattus norvegicus [5]; acute, oral, gavage) was 5110 mg/kg, the LD50 (Rattus norvegicus [5]; acute, oral, gavage, Sprague-Dawley) was 5000 mg/kg and 5200 mg/kg and the NOAEL (Rattus norvegicus [5]; reproduction developmental, duration: 12 weeks, oral, diet, Sprague-Dawley, generation: F0) was 200 ppm. For the same compound, the NOAEL (Rattus norvegicus [5]; reproduction developmental, duration: 12 weeks, oral, diet, Sprague-Dawley, generation: F1) was 600 ppm, the NOAEL (Rattus norvegicus [5]; reproduction developmental, oral, diet, Sprague-Dawley, generation: F0) was 600 ppm and the LD50 (Oryctolagus sp. [9]; semiocclusive) was > 10000 mg/kg. For the same compound, the LC0 (Rattus norvegicus [6]) was 164 mg/L.
Work on `ClC1=C(Cl)[C@]2(Cl)[C@H]3[C@H]([C@@H]4C=C[C@H]3C4)[C@@]1(Cl)C2(Cl)Cl` [Aldrin] yielded an LOAEL (Mus musculus [14]; duration: 7 days, M/F, ICR) of 2 mg/kg-day, an LOAEL (Rattus norvegicus [15]; duration: 2 years, M/F, Osborne-Mendel, hepatic) of 0.037 mg/kg-day and an LOAEL (Canidae [11]; duration: 16 months, diet, M/F, Urinary) of 0.043 mg/kg-day. The LOAEL (Rattus norvegicus [2]; oral, diet, liver toxicity) was 0.025 mg/kg-day, the LOAEL (Rattus norvegicus [4]) was 1 mg/kg-day and the NOAEL (Rattus norvegicus [4]) was 0.2 mg/kg-day.
With `C=CCCl` [Allyl chloride] the NOAEL (Oryctolagus sp. [16]; chronic, duration: 5 months, inhalation, intermittent, Nervous system: Neurotoxicity) was 17 mg/m3, the LOAEL (Oryctolagus sp. [17]; [24]) was 206 mg/m3 and the NOAEL (Oryctolagus sp. [17]; [24]) was 17 mg/m3.
Compound `Clc1cccc(-c2cc(Cl)cc(Cl)c2)c1` [Aroclor 1016] has an LOAEL (Monkey) of 0.028 mg/kg-day, an NOAEL (Monkey) of 0.007 mg/kg-day and an LOAEL (Neovison sp.) of 3.43 mg/kg-day. It also gave an NOAEL (Neovison sp.) of 1.37 mg/kg-day.
In the case of `CC(C)(C)c1ccc(OP2OCC3(CO2)COP(Oc2ccc(C(C)(C)C)cc2C(C)(C)C)OC3)c(C(C)(C)C)c1` (stereo not drawn) [Bis(2,4-di-tert-butylphenyl) pentaerythritol diphosphite], the LD50 (Gallus sp.) is reported as > 6080 mg/kg, the NOAEL (Canidae [18]) is reported as 12 mg/kg-day and the LC50 (Rattus norvegicus [5]; acute, inhalation, Sprague-Dawley) is reported as > 2000 mg/m3. The LD50 (Rattus norvegicus [5]; acute, oral, Sprague-Dawley) was 5580 mg/kg, the NOAEL (Rattus norvegicus [5]; chronic, duration: 24 months, oral, diet, Wistar) was 39 mg/kg-day and the NOAEL (Rattus norvegicus [5]; reproduction developmental, duration: 90 days, oral, diet, Crl:CD(SD), generation: F0) was 1000 ppm. The NOAEL (Rattus norvegicus [5]; reproduction developmental, duration: 90 days, oral, diet, M, Crl:CD(SD)) was 22 mg/kg-day and the LD50 (Oryctolagus sp. [9]; New Zealand) was > 2000 mg/kg.
For `CCC[CH2][Sn]([CH2]CCC)([CH2]CCC)[O][Sn]([CH2]CCC)([CH2]CCC)[CH2]CCC` [Bis(tributyltin)oxide], the NOAEL (Rattus norvegicus [15]; duration: 6 months) was 0.025 mg/kg-day, the NOAEL (Rattus norvegicus [15]; duration: 18 months) was 0.025 mg/kg-day and the LOAEL (Coturnix japonica) was 16.9 mg/kg-day. The NOAEL (Coturnix japonica) was 6.8 mg/kg-day, the LOAEL (Mus musculus [19]) was 35 mg/kg-day and the NOAEL (Mus musculus [19]) was 23.4 mg/kg-day.
`Clc1ccc(C(c2ccc(Cl)cc2)C(Cl)(Cl)Cl)cc1` [DDT] was tested, and the LOAEL (Mus musculus [14]; duration: 14 days, M, NMRI) was 0.5 mg/kg-day, the LEL (Mus musculus [20]; duration: 3 days, intraperitoneal) was 100 mg/kg-day and the LEL (Mus musculus [20]; duration: 3 days, subcutaneous) was 1000 mg/kg-day. For the same compound, the LEL (Mus musculus [20]; duration: 5 days, subcutaneous) was 10 mg/kg-day, the LEL (Rattus norvegicus [21]; duration: 1 days, injection, intraperitoneal) was 12.5 mg and the LEL (Rattus norvegicus [21]; duration: 3 days, injection, intraperitoneal) was 4 mg. For the same compound, the LEL (Rattus norvegicus [21]; duration: 3 days, oral) was 100 mg/kg-day, the NOEL (Rattus norvegicus [1]; chronic, duration: 27 weeks, Liver: Lesions) was 0.05 mg/kg-day and the LOAEL (Rattus norvegicus [2]; [25]) was 0.39 mg/kg-day. It also gave an NOEL (Rattus norvegicus [2]; [25]) of 0.05 mg/kg-day, an LOAEL (Pelecanus occidentalis) of 0.028 mg/kg-day and an NOAEL (Pelecanus occidentalis) of 0.0028 mg/kg-day. It also gave an LOAEL (Rattus norvegicus [4]) of 4 mg/kg-day and an NOAEL (Rattus norvegicus [4]) of 0.8 mg/kg-day.
In the case of `COc1c(Cl)ccc(Cl)c1C(=O)O` [Dicamba], the NOAEL (Rattus norvegicus [5]; developmental, duration: 14 days, oral, gavage, Crj:CD) is reported as ≤ 400 mg/kg-day, the NOAEL (Rattus norvegicus [5]; reproduction developmental, duration: 14 days, oral, gavage, F, Crj:CD) is reported as ≤ 160 mg/kg-day and the NOAEL (Oryctolagus sp. [9]; F, New Zealand) is reported as ≤ 30 mg/kg-day. For the same compound, the NOAEL (Oryctolagus sp. [9]; New Zealand, generation: F1) was ≤ 300 mg/kg-day, the NOAEL (Oryctolagus sp. [16]; developmental, duration: 12 days, oral, gavage, Dam: Decreased weight gain + Fetus: Decreased weight + Fetus: Increased mortality + Fetus: Increased post-implantation losses) was 3 mg/kg-day and the LEL (Oryctolagus sp. [17]; [26]) was 10 mg/kg-day. For the same compound, the NOEL (Oryctolagus sp. [17]; [26]) was 3 mg/kg-day.
